In brackets after ≈: the same amount, converted by molar mass.
What was measured:
HL-60 cells [1] = experiment: Membrane phenotype, cell surface antigen by flow cytometry; format: cell-based, human; conditions: Brusatol 25 ng/ml, 4-day protocol
Procedure: (§1) Cell lines were tested using a 4-day incubation protocol, unless otherwise specified.
(§2) 3) Determination of cell surface antigen by flow cytometry. Cells (10^6) were washed with PBS and then incubated for 30 min at room temperature with respective monoclonal antibodies, washed with 20 volumes of diluent (PBS with 0.1% sodium azide and 1% BSA), and resuspended in 0.5 ml of fresh diluent for evaluation. Necrotic cells were excluded from the analysis by propidium iodide (PI) staining. The following mAbs (Sigma, St. Louis, Mo.) were used to assess the maturation level of myeloid cell lines: antiCD15 (Leu M1), antiCD-11b (OKM1), antiCD14 and antiCD13. The following mAbs (Sigma, St. Louis, Mo.) were used to assess the maturation level of lymphocytic cell lines: antiCD20, antiHLA-DR and antikappa light chain.
Cells were induced to differentiate with the indicated concentrations of brusatol using a 4-day protocol and then analyzed for membrane markers of differentiation as described under “Materials and methods”. Results are expressed as the specific mean fluorescence intensity (ratio of antigen antibody flourescence over isotype antibody fluorescence), and represents the mean of two independent studies.

DHL-6 cells = experiment: Membrane markers of B-lymphocyte maturation by flow cytometry; format: cell-based; conditions: brusatol (5 ng/ml), control 197.5
Procedure: as §1, §2
(§3) Finally, various membrane markers of B-lymphocyte maturation (i.e., CD20, superficial light chain kappa and HLA-DR) in SUPB13, RS4;11, Reh, Daudi and DHL-6 were analyzed. Few changes were observed, but brusatol induced a small increase in CD20 with DHL-6 cells (197.5 control vs. 225.3 brusatol (5 ng/ml), specific mean fluorescence intensity), and a larger increase of HLA-DR in Daudi cells (92.5 control vs. 244.9 brusatol (10 ng/ml), specific mean fluorescence intensity).

Daudi cells = experiment: as above; format: cell-based; conditions: brusatol (10 ng/ml), control 92.5
Procedure: as §1, §2, §3

HL-60 cells [2] = experiment: In vivo hollow fiber test
Procedure: As a preliminary test of in vivo efficacy, a hollow fiber study was performed. The in vivo hollow fiber test was performed using literature procedures with some modifications (see M. G. Hollingshead et al., Life Sic., 57, pages 131-141 (1995)). HL-60 cells were cultured in RPMI 1640 medium and collected by centrifugation and resuspended in conditioned medium at a concentration of 2.5×10^6 cells/ml. Fibers filled with cells were incubated in 6-well plates overnight at 37° C. in a 5% CO2 atmosphere. Female athymic NCr nu/nu mice at 5-6 weeks of age were obtained from Frederick Cancer Research Facility. Each mouse hosted up to 6 fibers, which were cultured in two physiologic compartments. For intraperitoneal implants, a small incision was made through the skin and musculature of the dorsal abdominal wall, the fiber samples were inserted into the peritoneal cavity in a craniocaudal direction, and the incision was closed with skin staples. For subcutaneous implants, a small skin incision was made at the nape of the neck to allow insertion of an 11-gauge tumor implant trocar. The trocar, containing the hollow fiber samples, was inserted caudally through the subcutaneous tissues and fibers were deposited during withdrawal of the trocar. The incision was closed with a skin staple.
In preliminary studies, cell growth was assessed with fibers containing various cell densities. […] For treatment protocols, brusatol was dissolved in PBS. Mice were randomized into 7 groups: PBS vehicle control group (6 mice per group); 0.25, 0.5, 1.25, 2.5, 5, 12.5 mg/kg of brusatol (3 mice per group). Test compound brusatol was administered once daily by intraperitoneal injection from day 3-6 after implantation. Body weights were measured daily.
On day 7, mice were sacrificed and fibers were retrieved. […] Aliquots (150 μl) of extracted MTT formazan were transferred to Individual wells of 96-well plates and assessed for optical density at a wavelength of 540 nm. The effect of the treatment regimen was determined by the net growth percentage of the cells relative to change in […].

[3] = Withdrawal assays, growth and differentiation of HL-60 cells; format: cell-based, human; conditions: human, HL-60 cells
Procedure: (§4) The irreversibility of brusatol effects on growth and differentiation of HL-60 cells was tested using withdrawal assays during a 4-day experiment.
(§5) The assay lasted for 4 days (96 h) and then, cells were analyzed for viability and differentiation markers. […] Results are shown as the mean of duplicate samples (±standard deviation).

HL-60 cells [4] = experiment: as above; format: cell-based, human; conditions: 12.5 ng/ml
Procedure: as §4, §5

[5] = Cytotoxicity, viability by Trypan blue exclusion; conditions: human, SUPB13 cells, Cytotoxicity (IC50, ng/ml), four days
Procedure: (§6) All cell lines were maintained in suspension culture using RPMI 1640 medium supplemented with 10% heat-inactivated fetal bovine serum, 100 units of penicillin/ml and 100 μg of streptomycin/ml at 37° C. in a humidified atmosphere of 5% CO2 in air.
(§7) Cellular viability was monitored by Trypan blue exclusion.
(§8) ^aViability was determined by Trypan blue exclusion in duplicate samples. […] Results are expressed as median inhibitory cell concentrations of two independent experiments (±standard deviations).

SUPB13 = experiment: Cytotoxicity, viability by Trypan blue exclusion; conditions: four days
Procedure: as §6, §7, §8

[6] = Cytotoxicity, viability by Trypan blue exclusion; conditions: human, Reh cells, Cytotoxicity (IC50, ng/ml), four days
Procedure: as §6, §7, §8

Reh = experiment: Cytotoxicity, viability by Trypan blue exclusion; conditions: four days
Procedure: as §6, §7, §8

[7] = human beings; single intravenous injection of 3 mg/m^2; cited from earlier work
[8] = tested on: metastatic breast cancer and malignant melanoma; conditions: phase II trials, adult patients with metastatic breast cancer and malignant melanoma; cited from earlier work
in vitro = conditions: human
Procedure: HL-60, K562, U937, Reh and Daudi cells were obtained from the American Type Culture Collection (Rockville, Md.). Kasumi-1, NB4, BV173, SUPB13, and RS4;11 cells were provided by the Section of Hematology/Oncology, University of Illinois College of Medicine, Chicago, Ill. All cell lines were maintained in suspension culture using RPMI 1640 medium supplemented with 10% heat-inactivated fetal bovine serum, 100 units of penicillin/ml and 100 μg of streptomycin/ml at 37° C. in a humidified atmosphere of 5% CO2 in air. All cells were routinely tested for mycoplasma contamination.
Cellular viability was monitored by Trypan blue exclusion. Inhibition of [3H]thymidine incorporation into DNA was determined to assess the level of cell proliferation as well as DNA synthesis inhibition. Cells were treated with test samples for four days and then placed into 96-well plates (100 μl) and treated with [3H]thymidine (0.5 μCi/ml, 65 Ci/mmol) for 18 h at 37° C. in a 5% CO2 incubator. Cells then were collected on glass fiber filters using a TOMTEC Harvester 96®. The filters were counted using a Microbeta™ liquid scintillation counter (Wallac, Turku, Finland) with scintillation fluid. Finally, the percentage of [3H]thymidine incorporation per 10^6 cells was calculated by dividing the dpm of sample-treated cells by the dpm of DMSO-treated cells.
as §8

[9] = tested on: patients with various types of solid tumors; conditions: phase I clinical trials; cited from earlier work

What does the source list for `COC(=O)[C@@]12OC[C@]34[C@H]([C@@H](O)[C@@H]1O)[C@@]1(C)CC(=O)C(O)=C(C)[C@@H]1C[C@H]3OC(=O)[C@H](OC(=O)C=C(C)C)[C@@H]24` [compound 1, brusatol]?
CD11b, specific mean fluorescence intensity (HL-60 cells [1]): 2.2 ± 0.5; CD13, specific mean fluorescence intensity (HL-60 cells [1]): 266.1 ± 55.7; CD14, specific mean fluorescence intensity (HL-60 cells [1]): 1.0; CD15, specific mean fluorescence intensity (HL-60 cells [1]): 177.1 ± 8.7; CD20, specific mean fluorescence intensity (DHL-6 cells): 225.3; HLA-DR, specific mean fluorescence intensity (Daudi cells): 244.9; inhibition at s.c. site (HL-60 cells [2]; HL-60 hollow fibers, 5 mg/kg): 80.8%; inhibitory percentage at s.c. site (HL-60 cells [2]; HL-60 hollow fibers, doses from 0.25 mg/kg, below 5 mg/kg): around 25%; lethality (HL-60 cells [2]; mice, 12.5 mg/kg): lethal; viability at 48 h, 12.5 ng/ml ([3]; 12.5 ng/ml, 48 h exposure): > 80%; viability at 72 h, 12.5 ng/ml ([3]; 12.5 ng/ml, 72 h exposure): 56%; viability at 96 h, 12.5 ng/ml ([3]; 12.5 ng/ml, 96 h exposure): 45%; selectivity ratio ([3]; 2-day protocol versus 4-day protocol, read-out: increase in selectivity (differentiation vs cytotoxicity)): 10; IC50 at 4 days ([3]; 4-day protocol, read-out: cytotoxic IC50): 0.025 µg/mL (≈ 0.048 µM); IC50 at 2 days ([3]; 2 day-protocol, read-out: cytotoxic IC50): 0.25 µg/mL (≈ 0.48 µM); cells induced to differentiate (HL-60 cells [4]; withdrawal after 48 h of exposure, 4-day experiment): 41%; cells induced to differentiate (HL-60 cells [4]; without withdrawal): 46%; IC50 at 4 days [5]: < 0.025 µg/mL; Cytotoxicity (IC50, ng/ml) (SUPB13): 20 ± 1.2 ng/mL; IC50 at 4 days [6]: 0.05 to 0.1 µg/mL (≈ 0.0961 to 0.192 µM); Cytotoxicity (IC50, ng/ml) (Reh): 100 ± 5.4 ng/mL

Which blood level [7] does the source give for `COC(=O)[C@@]12OC[C@]34[C@H]([C@@H](O)[C@@H]1O)[C@@]1(C)CC(=O)C(O)=C(C)[C@@H]1C[C@H]3OC(=O)[C@H](OC(=O)/C=C(\C)C(C)C)[C@@H]24` [compound 2, bruceantin] here?
The blood level was 22 ng/mL.

What about the objective tumor regressions [8] of the same compound?
Its objective tumor regressions is “No objective tumor regressions were observed”.

And the IC50 at 4 days (in vitro)?
The IC50 at 4 days was greater than 0.05 µg/mL.

And the hematologic toxicity [9]?
The hematologic toxicity was “moderate to insignificant”.
